Laboratory results: patent publication US10208033B2, “β-carboline, dihydro-β-carboline and tetrahydro-β-carboline alkaloid derivatives and preparation methods same and use in aspects of preventing and treating plant viruses, fungicides and insecticides” (NANKAI UNIVERSITY, priority 2013, dated 2019)
Where two headings read alike, the source gives them in different places.

Experiments:
[1] = test system: tobacco mosaic virus (TMV); experiment: Anti-TMV in vivo therapeutic effect; parameters: species or system tobacco mosaic virus (host Nicotiana tabacum L.cv.Xanthi NN)
cucumber fusarium wilt = experiment: Fungicidal (bactericidal) activity in vitro, PDA colony diameter; type: cell-based; settings: 50 mg/kg
Sclerotinia scleotiorum = experiment: as above; type: cell-based; settings: 50 mg/kg
cotton bollworms = experiment: whole plant or invertebrate; settings: concentration 600 mg/kg
Description: Experimental method of cotton bollworms: feed and drug mixing method: measure 3 mL of prepared solution and add it to about 27 g of newly prepared feed, thereby obtaining needed concentration through dilution by 10 times.

[2] = test system: Colletotrichum orbiculare; experiment: Fungicidal (bactericidal) activity in vitro, PDA colony diameter; type: cell-based; settings: 50 mg/kg
Alternaria solani = experiment: as above; type: cell-based; settings: 50 mg/kg
Phytophthora capsici = experiment: as above; type: cell-based; settings: 50 mg/kg
potato late blight = experiment: microbe, parasite or virus in culture; type: cell-based
mosquito larvae = experiment: whole plant or invertebrate; settings: 24 h
Procedure, shortened: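 Compound dissolved in acetone (or other solvent) to a 1000 ppm stock and diluted in water to 5 ppm. Ten Culex pipiens pallens larvae at the start of the fourth instar, laboratory-reared, added per beaker; solvent-only aqueous control.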

[3] = test system: tobacco mosaic virus (TMV); experiment: Anti-TMV in vivo protective effect; parameters: species or system tobacco mosaic virus (host Nicotiana tabacum L.cv.Xanthi NN)
[4] = test system: tobacco mosaic virus (TMV); experiment: Anti-TMV in vitro effect (half-leaf soaking); type: cell-based, tobacco mosaic virus (host Nicotiana tabacum L.cv.Xanthi NN)
[5] = test system: tobacco mosaic virus (TMV); experiment: Anti-TMV in vivo inactivation; parameters: species or system tobacco mosaic virus (host Nicotiana tabacum L.cv.Xanthi NN)
Rhizoctonia solani = experiment: Fungicidal (bactericidal) activity in vitro, PDA colony diameter; type: cell-based; settings: 50 mg/kg
corn borers = settings: concentration 600 mg/kg
Bipolaria maydis = experiment: organism not typed; type: cell-based; settings: 50 mg/kg
Botrytis cinerea = experiment: Fungicidal (bactericidal) activity in vitro, PDA colony diameter; type: cell-based; settings: 50 mg/kg
Rhizoctonia cereali = experiment: as above; type: cell-based
Fusarium fujikuroi = experiment: as above; type: cell-based; settings: 50 mg/kg
Fusarium graminearumt = experiment: microbe, parasite or virus in culture; type: cell-based; settings: 50 mg/kg
Cercospora arachidicola = experiment: Fungicidal (bactericidal) activity in vitro, PDA colony diameter; type: cell-based; settings: 50 mg/kg
armyworms = type: in vivo; settings: concentration 600 mg/kg
Macrophoma kawatsukai = experiment: Fungicidal (bactericidal) activity in vitro, PDA colony diameter; type: cell-based; settings: 50 mg/kg

| SMILES | Relative inhibition rate (%) In vivo therapy ([1]; treatment dose 100 μg/mL) [%] | Relative inhibition rate (%) In vivo therapy ([1]; treatment dose 500 μg/mL) [%] | Bactericidal activity (%) Cucumber fusarium wilt (cucumber fusarium wilt) [%] | Bactericidal activity (%) Sclerotinia scleotiorum (Sclerotinia scleotiorum) [%] | Cotton bollworm Mortality (%) (cotton bollworms) | Bactericidal activity (%) Colletotrichum orbiculare [2] [%] | Bactericidal activity (%) Alternaria solani (Alternaria solani) [%] | Bactericidal activity (%) Phytophthora capsici (Phytophthora capsici) [%] | Bactericidal activity (%) potato late blight (potato late blight) [%] | Mosquito larvae Mortality (%) (mosquito larvae; concentration 10 mg/kg) | Relative inhibition rate (%) In vivo protection ([3]; treatment dose 100 μg/mL) [%] | Relative inhibition rate (%) In vivo protection ([3]; treatment dose 500 μg/mL) [%] | Relative inhibition rate (%) In vitro activity ([4]; treatment dose 100 μg/mL) [%] | Relative inhibition rate (%) In vitro activity ([4]; treatment dose 500 μg/mL) [%] | Relative inhibition rate (%) In vivo inactivation ([5]; treatment dose 100 μg/mL) [%] | Relative inhibition rate (%) In vivo inactivation ([5]; treatment dose 500 μg/mL) [%] | Bactericidal activity (%) Rhizoctonia solani (Rhizoctonia solani) [%] | Corn borer Mortality (%) (corn borers) | Bactericidal activity (%) Bipolaria maydis (Bipolaria maydis) [%] | Bactericidal activity (%) Botrytis cinerea (Botrytis cinerea) [%] | also measured |
| --- | --- | --- | --- | --- | --- | --- | --- | --- | --- | --- | --- | --- | --- | --- | --- | --- | --- | --- | --- | --- | --- |
| C[C@@H]1N[C@H](C(=O)NN=Cc2ccc(N(C)C)cc2)Cc2c1[nH]c1ccccc21 [Ic-3, (1S, 3S)—N′-(4-dimethylaminobenzylidene)-1-methyl-2,3,4,9-tetrahydropyridino [3,4-b] indol-3-formylhydrazine] | 23.1 | 60.4 | 38.5 | 41.2 | 40 | 48.1 | 65.0 | 78.9 | 72.0 | 55 | 18.9 | 62.4 | 20.4 | 56.8 | 25 | 64.5 | 63.2 | 30 | 64.0 | 72.7 | Bactericidal activity (%) Rhizoctonia cereali (Rhizoctonia cereali; 50 mg/kg): 96.1%; Bactericidal activity (%) Fusarium fujikuroi (Fusarium fujikuroi): 35.7%; Bactericidal activity (%) Fusarium graminearumt (Fusarium graminearumt): 31.0%; Bactericidal activity (%) Cercospora arachidicola (Cercospora arachidicola): 76.5%; Armyworm Mortality (%) (armyworms): 25%; Bactericidal activity (%) Macrophoma kawatsukai (Macrophoma kawatsukai): 97.2% |
| C[C@@H]1N[C@H](C(=O)NN=Cc2ccc([N+](=O)[O-])cc2)Cc2c1[nH]c1ccccc21 [Ic-4, (1S, 3S)—N′-(4-nitrobenzylidene)-1-methyl-2,3,4,9-tetrahydropyridino [3,4-b] indol-3-formylhydrazine] | 20.8 | 57.1 | 38.5 | 88.2 | 35 | 48.1 | 45.0 | 78.9 | 52.0 | 65 | 21.4 | 61.5 | 19.6 | 62.8 | 27.4 | 58.3 | 59.2 | 35 | 60.0 | 72.7 | Bactericidal activity (%) Rhizoctonia cereali (Rhizoctonia cereali; 50 mg/kg): 88.2%; Bactericidal activity (%) Fusarium fujikuroi (Fusarium fujikuroi): 42.9%; Bactericidal activity (%) Fusarium graminearumt (Fusarium graminearumt): 58.6%; Bactericidal activity (%) Cercospora arachidicola (Cercospora arachidicola): 58.8%; Armyworm Mortality (%) (armyworms): 30%; Bactericidal activity (%) Macrophoma kawatsukai (Macrophoma kawatsukai): 72.2% |
| C[C@@H]1N[C@H](C(=O)NN=Cc2ccc(Cl)cc2Cl)Cc2c1[nH]c1ccccc21 [Ic-6, (1S, 3S)—N′-(2,4-dichlorobenzylidene)-1-methyl-2,3,4,9-tetrahydropyridino [3,4-b] indol-3-formylhydrazine] | 31.5 | 60.4 | 27.3 | 46.2 | 35 | 60.0 | 42.9 | 60.6 | 39.1 | 100 | 18.6 | 57.2 | 20.1 | 56.8 | 28.5 | 66.7 | 45.8 | 40 | 56.0 | 52.8 | Mosquito larvae Mortality (%) (mosquito larvae; concentration 5 mg/kg): 20%; Bactericidal activity (%) Rhizoctonia cereali (Rhizoctonia cereali): 56.8%; Bactericidal activity (%) Fusarium fujikuroi (Fusarium fujikuroi): 47.1%; Bactericidal activity (%) Fusarium graminearumt (Fusarium graminearumt): 53.8%; Bactericidal activity (%) Cercospora arachidicola (Cercospora arachidicola): 45.5%; Armyworm Mortality (%) (armyworms): 45%; Bactericidal activity (%) Macrophoma kawatsukai (Macrophoma kawatsukai): 48.5% |
| COc1ccc(C=NNC(=O)[C@@H]2Cc3c([nH]c4ccccc34)[C@H](C)N2)cc1 [Ic-8, (1S, 3S)—N′-(4-methoxybenzylidene)-1-methyl-2,3,4,9-tetrahydropyridino [3,4-b] indol-3-formylhydrazine] | 34.8 | 66.4 | 23.1 | 94.1 | 35 | 55.6 | 30.0 | 73.7 | 52.0 | 35 | 31.8 | 70 | 28.7 | 62.5 | 30.4 | 69.1 | 59.2 | 15 | 68.0 | 59.1 | Bactericidal activity (%) Rhizoctonia cereali (Rhizoctonia cereali; 50 mg/kg): 84.3%; Bactericidal activity (%) Fusarium fujikuroi (Fusarium fujikuroi): 64.3%; Bactericidal activity (%) Fusarium graminearumt (Fusarium graminearumt): 65.5%; Bactericidal activity (%) Cercospora arachidicola (Cercospora arachidicola): 64.7%; Armyworm Mortality (%) (armyworms): 20%; Bactericidal activity (%) Macrophoma kawatsukai (Macrophoma kawatsukai): 72.2% |
